# Experimental data reported in patent US9695155B2, “Herbicidal substituted pyrimidinyloxy benzene compounds” (E. I. DU PONT DE NEMOURS AND COMPANY, priority 2013, dated 2017).
# What was measured:
# giant foxtail [1] = assay: Test C preemergence; assay type: in vivo, Setaria faberii
# Procedure, shortened: (§1)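 Whole-plant greenhouse test with surfactant-containing solvent formulation, applied preemergence to sown loam–sand pots or postemergence to 2–18 cm plants. Scored by eye 13 to 15 days on, 0–100 scale.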
# ragweed = assay: Test C preemergence; assay type: in vivo, Ambrosia elatior
# Procedure, shortened: as §1
# corn = assay: Test C postemergence; assay type: in vivo, Zea mays
# Procedure, shortened: as §1
# pigweed [2] = assay: Test A postemergence; assay type: in vivo, Amaranthus retroflexus; conditions: 0 to 100 scale where 0 is no effect and 100 is complete control
# Procedure, shortened: (§2)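 Scoring: eye-based comparison with untreated controls, 0 for no effect through 100 for complete control, at about day 10. Treatments: directed soil spray preemergence; foliar spray postemergence on 2–10 cm plants at the one- to two-leaf stage. Medium: loam soil with sand.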
# blackgrass = assay: Test C preemergence; assay type: in vivo, Alopecurus myosuroides
# Procedure, shortened: as §1
# oilseed rape = assay: Test C postemergence; assay type: in vivo, Brassica napus
# Procedure, shortened: as §1
# giant foxtail [3] = assay: Test A postemergence; assay type: in vivo, Setaria faberii; conditions: 0 to 100 scale where 0 is no effect and 100 is complete control
# Procedure, shortened: as §2
# johnsongrass [4] = assay: Test C postemergence; assay type: in vivo, Sorghum halepense
# Procedure, shortened: as §1
# waterhemp = assay: Test C postemergence; assay type: in vivo, Amaranthus rudis
# Procedure, shortened: as §1
# large (Lg) crabgrass = assay: Test C postemergence; assay type: in vivo, Digitaria sanguinalis
# Procedure, shortened: as §1
# johnsongrass [5] = assay: Test C preemergence; assay type: in vivo, Sorghum halepense
# Procedure, shortened: as §1
# velvetleaf = assay: Test C postemergence; assay type: in vivo, Abutilon theophrasti
# Procedure, shortened: as §1
# pigweed [6] = assay: Test A preemergence; assay type: in vivo, Amaranthus retroflexus; conditions: 0 to 100 scale where 0 is no effect and 100 is complete control
# Procedure, shortened: as §2
# [7] = 16 g ai/ha, preemergence, scale 0 to 100 (0 no effect, 100 complete control)
# [8] = 62 g ai/ha, preemergence, scale 0 (no effect) to 100 (complete control)
# [9] = 125 g ai/ha, preemergence, scale 0 (no effect) to 100 (complete control)
# [10] = Preemergence, 31 g ai/ha, scale 0 to 100, 0 no effect, 100 complete control
# [11] = 16 g ai/ha, postemergence, 0 is no effect, 100 is complete control
# [12] = 31 g ai/ha, postemergence, visual rating, scale 0 to 100 (0 no effect, 100 complete control), 13 to 15 days
# [13] = 125 g ai/ha, postemergence, visual rating, scale 0 to 100 (0 no effect, 100 complete control)
# [14] = Postemergence, 62 g ai/ha, scale 0 to 100 (0 no effect, 100 complete control)
smiles,measurement,setting,value
"FC(F)(F)Sc1cnn(-c2ccccc2Oc2ncc(Cl)cn2)c1 [Compound 132, 5-chloro-2-[2-[4-(trifluoromethylthio)-1H-pyrazol-1-yl]phenoxy]pyrimidine]",pest or weed control at 16 g/ha,"giant foxtail [1]; Setaria faberi, pre-emergence, 16 g ai/ha, preemergence, scale 0 to 100 (0 no effect, 100 complete control), read-out: Foxtail, Giant plant response rating",5%
same,pest or weed control at 62 g/ha,"giant foxtail [1]; Setaria faberi, pre-emergence, 62 g ai/ha, preemergence, scale 0 (no effect) to 100 (complete control), read-out: Foxtail, Giant plant response rating",70%
same,pest or weed control at 125 g/ha,"giant foxtail [1]; Setaria faberi, pre-emergence, 125 g ai/ha, preemergence, scale 0 (no effect) to 100 (complete control), read-out: Foxtail, Giant plant response rating",98%
same,pest or weed control at 31 g/ha,"giant foxtail [1]; Setaria faberi, pre-emergence, Preemergence, 31 g ai/ha, scale 0 to 100, 0 no effect, 100 complete control, read-out: Plant response rating, Foxtail, Giant",55%
same,pest or weed control at 16 g/ha,"ragweed; Ambrosia artemisiifolia, pre-emergence, 16 g ai/ha, preemergence, scale 0 to 100 (0 no effect, 100 complete control), read-out: Ragweed plant response rating",10%
same,pest or weed control at 62 g/ha,"ragweed; Ambrosia artemisiifolia, pre-emergence, 62 g ai/ha, preemergence, scale 0 (no effect) to 100 (complete control), read-out: Ragweed plant response rating",40%
same,pest or weed control at 125 g/ha,"ragweed; Ambrosia artemisiifolia, pre-emergence, 125 g ai/ha, preemergence, scale 0 (no effect) to 100 (complete control), read-out: Ragweed plant response rating",30%
same,pest or weed control at 31 g/ha,"ragweed; Ambrosia artemisiifolia, pre-emergence, Preemergence, 31 g ai/ha, scale 0 to 100, 0 no effect, 100 complete control, read-out: Plant response rating, Ragweed",10%
same,plant injury at 16 g/ha,"corn; Zea mays, post-emergence, 16 g ai/ha, postemergence, 0 is no effect, 100 is complete control, read-out: Plant response rating (0 to 100), Corn",5%
same,"Corn plant response rating (crop injury, 0 = no effect, 100 = complete kill) at 125 g/ha","corn; Zea mays, post-emergence, 125 g ai/ha, postemergence, visual rating, scale 0 to 100 (0 no effect, 100 complete control)",10%
same,"Corn plant response rating (crop injury, 0 = no effect, 100 = complete kill) at 62 g/ha","corn; Zea mays, post-emergence, Postemergence, 62 g ai/ha, scale 0 to 100 (0 no effect, 100 complete control)",5%
same,pest or weed control at 500 g/ha,"pigweed [2]; Amaranthus retroflexus, post-emergence, 500 g ai/ha, read-out: Plant response rating, Pigweed",100%
same,pest or weed control at 125 g/ha,"pigweed [2]; Amaranthus retroflexus, post-emergence, 240 h, 125 g ai/ha, read-out: Pigweed plant response rating",100%
same,pest or weed control at 16 g/ha,"blackgrass; Alopecurus myosuroides, pre-emergence, 16 g ai/ha, preemergence, scale 0 to 100 (0 no effect, 100 complete control), read-out: Blackgrass plant response rating",0%
same,pest or weed control at 62 g/ha,"blackgrass; Alopecurus myosuroides, pre-emergence, 62 g ai/ha, preemergence, scale 0 (no effect) to 100 (complete control), read-out: Blackgrass plant response rating",40%
same,pest or weed control at 125 g/ha,"blackgrass; Alopecurus myosuroides, pre-emergence, 125 g ai/ha, preemergence, scale 0 (no effect) to 100 (complete control), read-out: Blackgrass plant response rating",95%
same,pest or weed control at 31 g/ha,"blackgrass; Alopecurus myosuroides, pre-emergence, Preemergence, 31 g ai/ha, scale 0 to 100, 0 no effect, 100 complete control, read-out: Plant response rating, Blackgrass",5%
same,plant injury at 16 g/ha,"oilseed rape; Brassica napus, post-emergence, 16 g ai/ha, postemergence, 0 is no effect, 100 is complete control, read-out: Plant response rating (0 to 100), Oilseed Rape",40%
same,plant injury at 125 g/ha,"oilseed rape; Brassica napus, post-emergence, 125 g ai/ha, postemergence, visual rating, scale 0 to 100 (0 no effect, 100 complete control), read-out: Plant response rating, Oilseed Rape",95%
same,plant injury at 62 g/ha,"oilseed rape; Brassica napus, post-emergence, Postemergence, 62 g ai/ha, scale 0 to 100 (0 no effect, 100 complete control), read-out: Plant response rating, Oilseed Rape",70%
same,pest or weed control at 125 g/ha,"giant foxtail [3]; Setaria faberi, post-emergence, 240 h, 125 g ai/ha, read-out: Foxtail, Giant plant response rating",60%
same,pest or weed control at 500 g/ha,"giant foxtail [3]; Setaria faberi, post-emergence, 240 h, 500 g ai/ha, read-out: Plant response rating, Foxtail, Giant",90%
same,pest or weed control at 16 g/ha,"johnsongrass [4]; Sorghum halepense, post-emergence, 16 g ai/ha, postemergence, 0 is no effect, 100 is complete control, read-out: Plant response rating (0 to 100), Johnsongrass",5%
same,pest or weed control at 125 g/ha,"johnsongrass [4]; Sorghum halepense, post-emergence, 125 g ai/ha, postemergence, visual rating, scale 0 to 100 (0 no effect, 100 complete control), read-out: Plant response rating, Johnsongrass",5%
same,pest or weed control at 62 g/ha,"johnsongrass [4]; Sorghum halepense, post-emergence, Postemergence, 62 g ai/ha, scale 0 to 100 (0 no effect, 100 complete control), read-out: Plant response rating, Johnsongrass",5%
same,pest or weed control at 16 g/ha,"waterhemp; Amaranthus tuberculatus, post-emergence, 16 g ai/ha, postemergence, 0 is no effect, 100 is complete control, read-out: Plant response rating (0 to 100), Waterhemp",45%
same,pest or weed control at 125 g/ha,"waterhemp; Amaranthus tuberculatus, post-emergence, 125 g ai/ha, postemergence, visual rating, scale 0 to 100 (0 no effect, 100 complete control), read-out: Plant response rating, Waterhemp",75%
same,pest or weed control at 62 g/ha,"waterhemp; Amaranthus tuberculatus, post-emergence, Postemergence, 62 g ai/ha, scale 0 to 100 (0 no effect, 100 complete control), read-out: Plant response rating, Waterhemp",65%
same,pest or weed control at 16 g/ha,"large (Lg) crabgrass; Digitaria sanguinalis, post-emergence, 16 g ai/ha, postemergence, 0 is no effect, 100 is complete control, read-out: Plant response rating (0 to 100), Crabgrass, Large",5%
same,pest or weed control at 125 g/ha,"large (Lg) crabgrass; Digitaria sanguinalis, post-emergence, 125 g ai/ha, postemergence, visual rating, scale 0 to 100 (0 no effect, 100 complete control), read-out: Plant response rating, Crabgrass, Large",10%
same,pest or weed control at 62 g/ha,"large (Lg) crabgrass; Digitaria sanguinalis, post-emergence, Postemergence, 62 g ai/ha, scale 0 to 100 (0 no effect, 100 complete control), read-out: Plant response rating, Crabgrass, Large",5%
same,pest or weed control at 16 g/ha,"johnsongrass [5]; Sorghum halepense, pre-emergence, 16 g ai/ha, preemergence, scale 0 to 100 (0 no effect, 100 complete control), read-out: Johnsongrass plant response rating",0%
same,pest or weed control at 62 g/ha,"johnsongrass [5]; Sorghum halepense, pre-emergence, 62 g ai/ha, preemergence, scale 0 (no effect) to 100 (complete control), read-out: Johnsongrass plant response rating",0%
same,pest or weed control at 125 g/ha,"johnsongrass [5]; Sorghum halepense, pre-emergence, 125 g ai/ha, preemergence, scale 0 (no effect) to 100 (complete control), read-out: Johnsongrass plant response rating",35%
same,pest or weed control at 31 g/ha,"johnsongrass [5]; Sorghum halepense, pre-emergence, Preemergence, 31 g ai/ha, scale 0 to 100, 0 no effect, 100 complete control, read-out: Plant response rating, Johnsongrass",0%
same,pest or weed control at 16 g/ha,"velvetleaf; Abutilon theophrasti, post-emergence, 16 g ai/ha, postemergence, 0 is no effect, 100 is complete control, read-out: Plant response rating (0 to 100), Velvetleaf",5%
same,pest or weed control at 125 g/ha,"velvetleaf; Abutilon theophrasti, post-emergence, 125 g ai/ha, postemergence, visual rating, scale 0 to 100 (0 no effect, 100 complete control), read-out: Plant response rating, Velvetleaf",45%
same,pest or weed control at 62 g/ha,"velvetleaf; Abutilon theophrasti, post-emergence, Postemergence, 62 g ai/ha, scale 0 to 100 (0 no effect, 100 complete control), read-out: Plant response rating, Velvetleaf",40%
same,pest or weed control at 125 g/ha,"pigweed [6]; Amaranthus retroflexus, pre-emergence, 125 g ai/ha, read-out: Plant response rating, Pigweed",100%
same,pest or weed control at 500 g/ha,"pigweed [6]; Amaranthus retroflexus, pre-emergence, 240 h, 500 g ai/ha, read-out: Pigweed plant response rating",100%
CCCOc1cnn(-c2c(C#N)cccc2Oc2ncc(Cl)cn2)c1 [Compound 150],"Foxtail, Giant plant response rating",giant foxtail [1]; [7],5
same,"Foxtail, Giant plant response rating",giant foxtail [1]; [8],100
same,"Foxtail, Giant plant response rating",giant foxtail [1]; [9],100
same,"Plant response rating, Foxtail, Giant",giant foxtail [1]; [10],75
same,Ragweed plant response rating,ragweed; [7],0
same,Ragweed plant response rating,ragweed; [8],25
same,Ragweed plant response rating,ragweed; [9],55
same,"Plant response rating (0 to 100), Corn",corn; [11],5
same,Corn plant response rating,corn; [12],10
same,"Plant response rating, Corn",corn; [13],10
same,"Plant response rating, Corn",corn; [14],10
same,Pigweed plant response rating,pigweed [2]; 125 g ai/ha,100
same,"Plant response rating, Pigweed",pigweed [2]; 500 g ai/ha,100
same,Blackgrass plant response rating,blackgrass; [7],0
same,Blackgrass plant response rating,blackgrass; [8],50
same,Blackgrass plant response rating,blackgrass; [9],50
same,"Plant response rating, Blackgrass",blackgrass; [10],10
same,"Plant response rating (0 to 100), Oilseed Rape",oilseed rape; [11],5
same,Oilseed Rape plant response rating,oilseed rape; [12],40
same,"Plant response rating, Oilseed Rape",oilseed rape; [13],50
same,"Plant response rating, Oilseed Rape",oilseed rape; [14],45
same,"Foxtail, Giant plant response rating",giant foxtail [3]; 125 g ai/ha,100
same,"Plant response rating, Foxtail, Giant",giant foxtail [3]; 500 g ai/ha,100
same,"Plant response rating (0 to 100), Johnsongrass",johnsongrass [4]; [11],0
same,Johnsongrass plant response rating,johnsongrass [4]; [12],0
same,"Plant response rating, Johnsongrass",johnsongrass [4]; [13],5
same,"Plant response rating, Johnsongrass",johnsongrass [4]; [14],5
same,"Plant response rating (0 to 100), Waterhemp",waterhemp; [11],35
same,Waterhemp plant response rating,waterhemp; [12],35
same,"Plant response rating, Waterhemp",waterhemp; [13],65
same,"Plant response rating, Waterhemp",waterhemp; [14],35
same,"Plant response rating (0 to 100), Crabgrass, Large",large (Lg) crabgrass; [11],5
same,"Crabgrass, Large plant response rating",large (Lg) crabgrass; [12],5
same,"Plant response rating, Crabgrass, Large",large (Lg) crabgrass; [13],10
same,"Plant response rating, Crabgrass, Large",large (Lg) crabgrass; [14],5
same,Johnsongrass plant response rating,johnsongrass [5]; [7],0
same,Johnsongrass plant response rating,johnsongrass [5]; [8],70
same,Johnsongrass plant response rating,johnsongrass [5]; [9],80
same,"Plant response rating (0 to 100), Velvetleaf",velvetleaf; [11],20
same,Velvetleaf plant response rating,velvetleaf; [12],25
same,"Plant response rating, Velvetleaf",velvetleaf; [13],30
same,"Plant response rating, Velvetleaf",velvetleaf; [14],30
same,"Plant response rating, Pigweed",pigweed [6]; 125 g ai/ha,100
same,Pigweed plant response rating,pigweed [6]; 500 g ai/ha,100
